Data from the supplement of paper PMC11061612.

Legend:
[1] = test system: SCC-15 (Oral Cavity Carcinoma); experiment: combination Emax (second highest fraction inhibited in the dose matrix, 72 h); higher = more inhibition; extreme values may be limits of the assay
Outline: (§1)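 Cell lines in DMEM/F12 or RPMI with 10% FBS were plated in 1536-well plates, held 24 hours at 37°C, 5% CO2, then given two-drug dose matrices for 72 hours (DMSO typically 0.2%). Viability was read by CellTiter-Glo 2.0 luminescence and scaled as inhibition from 0 (vehicle wells) to 1 (blank wells). Combination Emax is the second-highest inhibition in the matrix; Bliss excess is observed combination effect minus expected EA + EB − EA·EB, EA and EB being single-agent effects.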

[2] = test system: KMOE-2 (Acute Myeloid Leukemia); experiment: as above
Outline: as §1

[3] = test system: PWR-1E (Non-Cancerous); experiment: as above
Outline: as §1

[4] = test system: NUGC-3 (Gastric Carcinoma); experiment: as above
Outline: as §1

[5] = test system: OE19 (Esophageal Adenocarcinoma); experiment: as above
Outline: as §1

[6] = test system: NEC8 (Other Solid Carcinomas); experiment: as above
Outline: as §1

[7] = test system: HSC-4 (Oral Cavity Carcinoma); experiment: as above
Outline: as §1

[8] = test system: HOP-62 (Lung Adenocarcinoma); experiment: as above
Outline: as §1

[9] = test system: HGC-27 (Gastric Carcinoma); experiment: as above
Outline: as §1

[10] = test system: OVCAR-4 (Ovarian Carcinoma); experiment: as above
Outline: as §1

[11] = test system: NCI-H1915 (Non-Small Cell Lung Carcinoma); experiment: as above
Outline: as §1

[12] = test system: TE-1 (Esophageal Squamous Cell Carcinoma); experiment: as above
Outline: as §1

[13] = test system: VA-ES-BJ (Other Solid Carcinomas); experiment: as above
Outline: as §1

[14] = test system: KMOE-2 (Acute Myeloid Leukemia); experiment: Bliss excess, mean over the matrix (fraction); higher = more synergy
Outline: as §1

[15] = test system: PWR-1E (Non-Cancerous); experiment: as above
Outline: as §1

[16] = test system: OE19 (Esophageal Adenocarcinoma); experiment: as above
Outline: as §1

[17] = test system: JVM-3 (B-Cell Non-Hodgkin's Lymphoma); experiment: as above
Outline: as §1

[18] = test system: NCI-H1915 (Non-Small Cell Lung Carcinoma); experiment: as above
Outline: as §1

[19] = test system: TE-1 (Esophageal Squamous Cell Carcinoma); experiment: as above
Outline: as §1

[20] = test system: VA-ES-BJ (Other Solid Carcinomas); experiment: as above
Outline: as §1
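Throughout, for Bliss excess, mean over the matrix: after 72 h of two-drug dosing.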

`Cc1cc2ncnn2cc1Nc1ncc2c(n1)n(C1CCOCC1)c(=O)n2C` [AZD7648] + CCN(CCO)CCCOc1ccc2c(Nc3cc(CC(=O)Nc4cccc(F)c4)[nH]n3)ncnc2c1 [AZD2811] (first compound max 10 µM, 7x7, partner max 1 µM) was tested, and the “combination Emax” value [1] was 0.458, the “combination Emax” value [2] was 0.297 and the “combination Emax” value [3] was 0.588. For the same compound, the “combination Emax” value [4] was 0.418, the “combination Emax” value [5] was 0.774 and the “combination Emax” value [6] was 0.0355. The “combination Emax” value [7] was 0.188, the “combination Emax” value [8] was 0.204 and the “combination Emax” value [9] was 0.856. The “combination Emax” value [10] was 0.285, the “combination Emax” value [11] was 0.252 and the “combination Emax” value [12] was 0.246. The “combination Emax” value [13] was 0.346, the Bliss excess [14] was 0.0325 and the Bliss excess [15] was 0.0299. The Bliss excess [16] was 0.0151, the Bliss excess [17] was 0.0791 and the Bliss excess [18] was -0.0444. For the same compound, the Bliss excess [19] was -0.0535 and the Bliss excess [20] was -0.0034.

In the case of `Cc1cc2ncnn2cc1Nc1ncc2c(n1)n(C1CCOCC1)c(=O)n2C` [AZD7648] + CN(C)CCCOc1ccc(-c2ccc3ncc4c(c3c2)n(C2CCOCC2)c(=O)n4C)cn1 [AZD0156] (first compound max 10 µM, 7x7, partner max 1 µM), the “combination Emax” value [1] is reported as 0.292, the “combination Emax” value [2] is reported as 0.213 and the “combination Emax” value [3] is reported as 0.363. For the same compound, the “combination Emax” value [4] was 0.296, the “combination Emax” value [5] was 0.363 and the “combination Emax” value [6] was 0.0719. For the same compound, the “combination Emax” value [7] was 0.112, the “combination Emax” value [8] was 0.144 and the “combination Emax” value [9] was 0.611. For the same compound, the “combination Emax” value [10] was 0.185, the “combination Emax” value [11] was 0.294 and the “combination Emax” value [12] was 0.19. The “combination Emax” value [13] was 0.225, the Bliss excess [14] was 0.0226 and the Bliss excess [15] was 0.0532. It also gave a Bliss excess [16] of 0.0583, a Bliss excess [17] of -0.0297 and a Bliss excess [18] of -0.0208. It also gave a Bliss excess [19] of -0.051 and a Bliss excess [20] of 0.0248.

With `Cc1cc2ncnn2cc1Nc1ncc2c(n1)n(C1CCOCC1)c(=O)n2C` [AZD7648] + C[C@@H]1COCCN1C2=NC(=NC(=C2)C3(CC3)[S@](=N)(=O)C)C4=C5C=CNC5=NC=C4 [AZD6738] (first compound max 10 µM, 7x7, partner max 10 µM) the “combination Emax” value [1] was 0.565, the “combination Emax” value [2] was 0.586 and the “combination Emax” value [3] was 0.769. The “combination Emax” value [4] was 0.665, the “combination Emax” value [5] was 0.813 and the “combination Emax” value [6] was 0.7. The “combination Emax” value [7] was 0.584, the “combination Emax” value [8] was 0.435 and the “combination Emax” value [9] was 0.849. For the same compound, the “combination Emax” value [10] was 0.737, the “combination Emax” value [11] was 0.364 and the “combination Emax” value [12] was 0.414. For the same compound, the “combination Emax” value [13] was 0.73, the Bliss excess [14] was 0.0035 and the Bliss excess [15] was -0.109. The Bliss excess [16] was -0.0607, the Bliss excess [17] was 0.0108 and the Bliss excess [18] was -0.0216. For the same compound, the Bliss excess [19] was -0.0086 and the Bliss excess [20] was -0.0099.

`Cc1cc2ncnn2cc1Nc1ncc2c(n1)n(C1CCOCC1)c(=O)n2C` [AZD7648] + O=C(c1cc(Cc2n[nH]c(=O)c3ccccc23)ccc1F)N1CCN(C(=O)C2CC2)CC1 [Olaparib] (first compound max 10 µM, 7x7, partner max 10 µM) was tested, and the “combination Emax” value [1] was 0.14, the “combination Emax” value [2] was 0.176 and the “combination Emax” value [3] was 0.28. For the same compound, the “combination Emax” value [4] was 0.349, the “combination Emax” value [5] was 0.289 and the “combination Emax” value [6] was 0.259. For the same compound, the “combination Emax” value [7] was 0.26, the “combination Emax” value [8] was 0.145 and the “combination Emax” value [9] was 0.629. The “combination Emax” value [10] was 0.133, the “combination Emax” value [11] was 0.372 and the “combination Emax” value [12] was 0.15. For the same compound, the “combination Emax” value [13] was 0.18, the Bliss excess [14] was -0.0066 and the Bliss excess [15] was -0.0005. The Bliss excess [16] was -0.0097, the Bliss excess [17] was -0.0053 and the Bliss excess [18] was -0.0215. The Bliss excess [19] was -0.0298 and the Bliss excess [20] was -0.0416.

For `COc1cc2c(cc1OCCCCCOc1cc3c(cc1OC)C(=O)N1C=C(C)C[C@H]1C=N3)N=C[C@@H]1CC(C)=CN1C2=O` [SG3199] + O=C(c1cc(Cc2n[nH]c(=O)c3ccccc23)ccc1F)N1CCN(C(=O)C2CC2)CC1 [Olaparib] (first compound max 0.001 µM, 7x7, partner max 10 µM), the “combination Emax” value [1] was 0.0778, the “combination Emax” value [2] was 0.0783 and the “combination Emax” value [3] was 0.0981. For the same compound, the “combination Emax” value [4] was 0.124, the “combination Emax” value [5] was 0.216 and the “combination Emax” value [6] was 0.201. The “combination Emax” value [7] was 0.212, the “combination Emax” value [8] was 0.118 and the “combination Emax” value [9] was 0.464. The “combination Emax” value [10] was 0.126, the “combination Emax” value [11] was 0.353 and the “combination Emax” value [12] was 0.194. The “combination Emax” value [13] was 0.151, the Bliss excess [14] was -0.0283 and the Bliss excess [15] was -0.0258. For the same compound, the Bliss excess [16] was 0.0098, the Bliss excess [17] was -0.0278 and the Bliss excess [18] was -0.0248. For the same compound, the Bliss excess [19] was -0.0286 and the Bliss excess [20] was 0.0099.
